Values after ≈ are worked out from the molar mass of the structure shown.
How the values were obtained:
[1] = target: T1, human FXRalpha ligand binding domain (LBD) (Homo sapiens, UniProt Q96RI1); test: FRET activity assay (ligand mediated cofactor peptide interaction, LANCE); format: biochemical; details: GST-FXR-LBD / biotinylated SRC-1 peptide (676-700)
T1 construct: made in house; host or cells: E. coli BL21(DE3), vector pDEST15
T1 sequence (Q96RI1 187-472 isoform Q96RI1-2): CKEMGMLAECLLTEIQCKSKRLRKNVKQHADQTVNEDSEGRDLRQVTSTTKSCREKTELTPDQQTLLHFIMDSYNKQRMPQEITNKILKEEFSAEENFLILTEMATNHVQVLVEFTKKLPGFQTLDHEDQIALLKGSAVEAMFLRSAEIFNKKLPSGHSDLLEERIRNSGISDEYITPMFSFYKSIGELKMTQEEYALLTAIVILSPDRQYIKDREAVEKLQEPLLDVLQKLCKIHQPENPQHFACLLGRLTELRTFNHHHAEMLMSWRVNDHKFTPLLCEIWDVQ
Procedure: Determination of a ligand mediated cofactor peptide interaction to quantify ligand binding to the nuclear receptor Farnesoid X Receptor (FXR) was performed as follows:
Preparation of human farnesoid X receptor (FXR) alpha ligand binding domain: The human FXRalpha ligand binding domain (LBD) was expressed in E. coli strain BL21(DE3) as an N-terminally glutathione-[…] (GST) tagged fusion protein. The DNA encoding the FXR ligand binding domain was cloned into vector pDEST15 (Invitrogen). Expression was under control of an IPTG inducible T7 promoter. The amino acid boundaries of the ligand binding domain were amino acids 187-472 of Database entry NM_005123 (RefSeq). Expression and purification of the FXR-LBD: An overnight preculture of a transformed E. coli strain was diluted 1:20 in LB-Ampicillin medium and grown at 30° C. to an optical density of OD600=0.4-0.6. Gene expression was then induced by addition of 0.5 mM IPTG. Cells were incubated an additional 6 h at 30° C., 180 rpm. Cells were collected by centrifugation (7000×g, 7 min, room temperature). Per liter of original cell culture, cells were resuspended in 10 ml lysis buffer (50 mM Glucose, 50 mM Tris pH 7.9, 1 mM EDTA and 4 mg/ml lysozyme) and left on ice for 30 min. Cells were then subjected to sonication and cell debris removed via centrifugation (22000×g, 30 min, 4° C.). Per 10 ml of supernatant 0.5 ml prewashed Glutathione 4B sepharose slurry (Qiagen) was added and the suspension kept slowly rotating for 1 h at 4° C. Glutathione 4B sepharose beads were pelleted by centrifugation (2000 g, 15 sec, 4° C.) and washed twice in wash buffer (25 mM Tris, 50 mM KCl, 4 mM MgCl2 and 1M NaCl). The pellet was resuspended in 3 ml elution buffer per liter of original culture (elution buffer: 20 mM Tris, 60 mM KCl, 5 mM MgCl2 and 80 mM glutathione added immediately prior to use as powder). The suspension was left rotating for 15 min at 4° C., the beads pelleted and eluted again with half the volume of elution buffer than the first time. The eluates were pooled and dialysed overnight in 20 mM Hepes buffer (pH 7.5) containing 60 mM KCl, 5 mM MgCl2 as well as 1 mM dithiothreitol and 10% (v/v) glycerol. The protein was analysed by SDS-Page.
The method measures the ability of putative ligands to modulate the interaction between the purified bacterial expressed FXR ligand binding domain (LBD) and a synthetic biotinylated peptide based on residues 676-700 of SRC-1 (LCD2, 676-700). The sequence of the peptide used was B-[…]-COOH where the N-terminus was biotinylated (B). The ligand binding domain (LBD) of FXR was expressed as fusion protein with GST in BL-21 cells using the vector pDEST15. Cells were lysed by sonication, and the fusion proteins purified over glutathione sepharose (Pharmacia) according to the manufacturers instructions. For screening of compounds for their influence on the FXR-peptide interaction, the Perkin Elmer LANCE technology was applied. This method relies on the binding dependent energy transfer from a donor to an acceptor fluorophor attached to the binding partner of interest. For ease of handling and reduction of background from compound fluorescence LANCE technology makes use of generic fluorophore labels and time resolved detection Assays were done in a final volume of 2 5 μl in a 384 well plate, in a Tris-based buffer (20 mM Tris-HCl pH 7,5; 60 mM KCl, 5 mM MgCl2; 35 ng/μl BSA), containing 20-60 ng/well recombinantly expressed FXR-LBD fused to GST, 200-600 nM N-terminally biotinylated peptide, representing SRC1 aminoacids 676-700, 200 ng/well Streptavidin-xIAPC conjugate(Prozyme) and 6-10 ng/well Eu W1024 antiGST (Perkin Elmer). DMSO content of the samples was kept at 1%. After generation of the assay mix and diluting the potentially FXR modulating ligands, the assay was equilibrated for one hour in the dark at room temperature in FIA-plates black 384 well (Greiner). […]

[2] = Rat hepatocyte stability assay; format: in vitro ADME; details: hepatocytes, 37° C., 60 minute, read-out: Rat hepatocyte clearance
Procedure: Compound stability towards rat hepatocytes was determined as follows: The hepatocytes are incubated with the test compound at 37° C. Samples are removed at the appropriate time points into methanol to terminate the reaction. Following centrifugation, the supernatant is analysed by LC-MS/MS. The disappearance of test compound is monitored over a 60 minute time period. The In peak area ratio (compound peak area/internal standard peak area) is plotted against time and the gradient of the line determined. Finally, half life t1/2 and Intrinsic clearance CLint is computed by the following equations: elimination rate konstant (k)=−gradient; t1/2 (min)=0.693/k; V (μl/10^6 cells)=volume of incubation (μl)/number of cells (*10^6); CLint (μl/min/10^6cells protein)=V*0.693/t1/2.

[3] = Rat microsomal stability assay; format: in vitro ADME; details: liver microsomes, 37° C., NADPH, 45 minute, read-out: Rat liver microsome clearance
Procedure: Compound stability towards rat liver microsomes was determined as follows: The microsomes are incubated with the test compound at 37° C. in the presence of the co-factor, NADPH, which initiates the reaction. The reaction is terminated by the addition of methanol. Following centrifugation, the supernatant is analysed on the LC-MS/MS. The disappearance of test compound is monitored over a 45 minute time period. The In peak area ratio (compound peak area/internal standard peak area) is plotted against time and the gradient of the line determined. Finally, Intrinsic clearance CLint is computed by the following equations: elimination rate konstant (k)=−gradient; t1/2 (min)=0.693/k; V (μl/mg)=volume of incubation (μl)/protein in incubation (mg); CLint (μl/min/mg protein)=V*0.693/t1/2.

[4] = Plasma protein binding assay (equilibrium dialysis); format: in vitro ADME; details: 37° C., extrapolated fraction unbound
Procedure: Equilibrium dialysis is used to determine the extent of binding of a compound to plasma proteins. A semi-permeable membrane separates a protein-containing compartment from a protein-free compartment. The system is allowed to equilibrate at 37° C. The test compound present in each compartment is quantified by LC-MS/MS. The extent of binding is reported as a fraction unbound (fu) value which is calculated as fu=1−(PC−PF)/PC. PC=Test compound concentration in protein-containing compartment. PF=Test compound concentration in protein-free compartment. In addition to using whole plasma, the plasma protein binding assay can be performed using two other ratios of plasma (10% or 50% plasma in buffer v/v). The following equations are used to convert from a fraction unbound at 10% or 50% to a fraction unbound at 100%: […]

[5] = Aqueous solubility assay, Protocol B, shake-flask method; format: physicochemical; details: aqueous buffer, 10 mM PBS buffer pH 7.4, 1% MeOH, room temperature, read-out: Aqueous solubility pH 7.4 (μM) (±standard deviation), shake-flask method
Procedure: Protocol B, shake-flask method:
Sample preparation: Sample and standard solution preparation is performed by mixing equal volumes of acetonitrile containing the internal standard (1 μM final concentration) with sample and calibration standard solutions (100 μl). After vigorously shaking (10 seconds) the samples are centrifuged (6000 g) for 5 minutes at 20° C. Aliquots of the particle-free supernatants are transferred to 200 μl sample vials and subsequently subjected to LC-MS/MS. Assay procedure: Test concentration was 100 μM in 10 mM PBS buffer pH 7.4 with a final MeOH concentration of 1%. The volume of the incubation solution was 500 μl. Depending on each compound's solubility in MeOH, the stock concentration and the incubation concentration was adapted. The test solutions in quadruplicates were shaken at 300 rpm over a 20 hours period at room temperature, followed by centrifugation at 20000 g for 30 minutes to separate the solid phase. 100 μl of particle free sample are added to 100 μl acetonitrile containing the internal standard. The aqueous solubility of the compounds was determined by measuring the concentration of the PBS buffer supernatant by HPLC-MS/MS.

IC50 [1] [nM]	hepatocyte CLint [2] [µL/min/1e6 cells]	microsomal CLint [3] [µL/min/mg]	fraction unbound [4]	solubility at 20 h [5] [µM]	Compound
≤ 1000	2.5	169	0.0004		CC(C)c1onc(-c2c(Cl)cccc2Cl)c1COc1ccc(N(C)C(=O)c2ccc(-c3nnn[nH]3)cc2)c(C(F)(F)F)n1 [Example 25, N-(6-((3-(2,6-Dichlorophenyl)-5-isopropylisoxazol-4-yl)methoxy)-2-(trifluoromethyl)pyridin-3-yl)-N-methyl-4-(1H-tetrazol-5-yl)benzamide]
≤ 1000				129 (≈ 72.4 µg/mL)	CC(C)c1onc(-c2c(Cl)cccc2Cl)c1COc1cnc(N(C)Cc2cccc(C(=O)O)c2)c(Cl)c1 [Example 32, 3-(((3-Chloro-5-((3-(2,6-dichlorophenyl)-5-isopropylisoxazol-4-yl)methoxy)pyridin-2-yl)(methyl)amino)methyl)benzoic acid]

Source: patent US20100184809A1, “Heterocyclic FXR Binding Compounds” (PHENEX PHARMACEUTICALS AG, priority 2006, published 2010)
